Data taken from ChEMBL document CHEMBL1201862, “PubChem BioAssay data set” (2004).
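A five-concentration, 48-hour dose response in 96-well plates underlies each endpoint, interpolated linearly between surrounding concentrations. Abbreviation: GI50, concentration required for 50% inhibition of growth.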 The source made the active and inactive calls. No stated cut-off is given here; in the data, active = GI50 up to about 1.1 µM and inactive = higher.

Assays:
Assay in all cases: DTP human tumour cell line panel, 48 h
LOX IMVI = tested on: LOX IMVI
BT-549 = tested on: BT-549
NCI-H522 = tested on: NCI-H522
NCI-H23 = tested on: NCI-H23
A549 = tested on: A549
OVCAR-5 = tested on: OVCAR-5
HL-60 = tested on: HL-60
HCC 2998 = tested on: HCC 2998
NCI/ADR-RES = tested on: NCI/ADR-RES
UACC-257 = tested on: UACC-257
SW-620 = tested on: SW-620
PC-3 = tested on: PC-3
HCT-116 = tested on: HCT-116
K562 = tested on: K562
SF-539 = tested on: SF-539
COLO 205 = tested on: COLO 205
SF-268 = tested on: SF-268
TK-10 = tested on: TK-10
Hs-578T = tested on: Hs-578T

Measured: GI50

Nc1ccccc1SC(C[N+](=O)[O-])c1ccc2c(c1)OCO2 (stereo not given)
inactive: LOX IMVI 1.75 µM | BT-549 4.22 µM | NCI-H522 14.1 µM | NCI-H23 3.08 µM | A549 3.1 µM | OVCAR-5 3.65 µM | HL-60 1.9 µM | HCC 2998 1.78 µM | NCI/ADR-RES 20.5 µM | UACC-257 1.81 µM | SW-620 2.31 µM | PC-3 7.66 µM | HCT-116 1.81 µM | K562 1.63 µM | SF-539 2.24 µM | COLO 205 3.71 µM | SF-268 7.55 µM | TK-10 2.63 µM | Hs-578T 5.64 µM

CCOC(=O)C(NC(=O)CC(C)C)(N1CCN(c2cc3c(cc2F)c(=O)c(C(=O)O)cn3C2CC2)CC1)C(F)(F)F (stereo not given)
inactive: LOX IMVI 15.8 µM | BT-549 16.3 µM | NCI-H522 2.73 µM | NCI-H23 7.46 µM | A549 27.5 µM | OVCAR-5 17.7 µM | HL-60 5.75 µM | HCC 2998 12 µM | NCI/ADR-RES 19.7 µM | UACC-257 16.7 µM | SW-620 19.6 µM | PC-3 15 µM | HCT-116 20.4 µM | K562 11 µM | SF-539 17.5 µM | COLO 205 16.7 µM | SF-268 11.1 µM | TK-10 10.3 µM | Hs-578T 21.8 µM

O=C1O/C(=C(\Br)c2ccc([N+](=O)[O-])cc2)c2ccccc21
inactive: LOX IMVI 67.8 µM | BT-549 > 79.8 µM | NCI-H522 38.5 µM | NCI-H23 > 100 µM | A549 > 100 µM | OVCAR-5 > 100 µM | HL-60 36.1 µM | HCC 2998 > 100 µM | NCI/ADR-RES > 100 µM | UACC-257 > 74.8 µM | SW-620 > 64.3 µM | PC-3 > 100 µM | HCT-116 97.9 µM | K562 30.1 µM | SF-539 > 100 µM | COLO 205 > 100 µM | SF-268 > 74 µM | TK-10 > 100 µM | Hs-578T 74.8 µM

CC1=C(C(=O)OCCc2ccc([N+](=O)[O-])cc2)C(c2ccccc2[N+](=O)[O-])C(C(=O)OC(C)C)=C(C)N1 (stereo not given)
inactive: LOX IMVI 4.14 µM | BT-549 2.4 µM | NCI-H522 2.18 µM | NCI-H23 3.97 µM | A549 2.96 µM | OVCAR-5 31.1 µM | HL-60 2.2 µM | HCC 2998 7.43 µM | NCI/ADR-RES 3.19 µM | UACC-257 4.04 µM | SW-620 6.89 µM | PC-3 1.49 µM | HCT-116 2.75 µM | K562 3.39 µM | SF-539 4.15 µM | COLO 205 6.01 µM | SF-268 5.55 µM | TK-10 5.87 µM | Hs-578T 4.38 µM

CC1(C)C(=O)N=C(N)N1C(=O)OCc1ccccc1
inactive: LOX IMVI > 100 µM | BT-549 > 100 µM | NCI-H522 > 100 µM | NCI-H23 > 100 µM | A549 > 100 µM | OVCAR-5 > 100 µM | HL-60 > 100 µM | HCC 2998 > 100 µM | NCI/ADR-RES > 100 µM | UACC-257 > 100 µM | SW-620 > 100 µM | PC-3 > 100 µM | HCT-116 > 100 µM | K562 > 100 µM | SF-539 > 100 µM | COLO 205 > 100 µM | SF-268 > 100 µM | TK-10 > 100 µM | Hs-578T > 100 µM
